Experimental data: patent publication US10144952B2, “Stabilization and isolation of extracellular nucleic acids” (QIAGEN GmbH, priority 2013, dated 2018)
Where a name gives a salt, the structure may show the parent alone. Where a SMILES comes first, the peptide text is derived from it. The star is where a group is joined. Cbz = O=C(OCc1ccccc1)*; CH2F = FC*

Columns and labels:
[1] = system: Bid-induced cyctochrome c release from HeLa cell mitochondria; conditions: at 5 μM; cited from earlier work
[2] = target: T1, calpain II (Homo sapiens, UniProt P17655); conditions: irreversible inhibitor; cited from earlier work
T1 sequence (P17655 1-700): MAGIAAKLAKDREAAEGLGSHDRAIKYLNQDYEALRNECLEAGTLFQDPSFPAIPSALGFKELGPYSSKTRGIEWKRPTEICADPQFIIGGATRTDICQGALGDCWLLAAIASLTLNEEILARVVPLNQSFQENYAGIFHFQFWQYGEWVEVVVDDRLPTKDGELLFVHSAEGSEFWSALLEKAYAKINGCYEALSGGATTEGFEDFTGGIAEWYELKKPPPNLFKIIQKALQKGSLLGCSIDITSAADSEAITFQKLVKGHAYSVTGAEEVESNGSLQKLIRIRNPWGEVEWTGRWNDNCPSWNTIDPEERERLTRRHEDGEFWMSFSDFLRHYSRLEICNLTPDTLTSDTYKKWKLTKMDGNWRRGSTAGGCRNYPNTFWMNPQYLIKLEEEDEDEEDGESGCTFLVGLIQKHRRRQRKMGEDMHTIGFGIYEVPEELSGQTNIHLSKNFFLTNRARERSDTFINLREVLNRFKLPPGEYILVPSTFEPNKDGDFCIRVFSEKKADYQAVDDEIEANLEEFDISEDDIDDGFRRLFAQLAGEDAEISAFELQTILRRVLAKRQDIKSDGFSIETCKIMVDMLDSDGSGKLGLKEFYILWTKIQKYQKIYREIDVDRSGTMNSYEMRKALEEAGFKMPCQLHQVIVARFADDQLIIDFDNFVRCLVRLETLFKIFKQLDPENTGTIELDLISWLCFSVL
T1 sequence (P04632 1-268 partner): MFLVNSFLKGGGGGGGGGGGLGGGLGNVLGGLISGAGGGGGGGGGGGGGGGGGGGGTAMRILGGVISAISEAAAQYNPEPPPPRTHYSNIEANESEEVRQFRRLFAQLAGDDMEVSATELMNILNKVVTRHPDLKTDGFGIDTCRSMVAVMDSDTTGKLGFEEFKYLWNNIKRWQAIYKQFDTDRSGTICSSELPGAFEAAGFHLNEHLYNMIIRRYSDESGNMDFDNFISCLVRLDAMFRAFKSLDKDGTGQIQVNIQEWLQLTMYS

[3] = target: cathepsin L (Homo sapiens, UniProt P07711); conditions: cited from earlier work
cathepsin L, sequence (P07711 114-333, species assumed): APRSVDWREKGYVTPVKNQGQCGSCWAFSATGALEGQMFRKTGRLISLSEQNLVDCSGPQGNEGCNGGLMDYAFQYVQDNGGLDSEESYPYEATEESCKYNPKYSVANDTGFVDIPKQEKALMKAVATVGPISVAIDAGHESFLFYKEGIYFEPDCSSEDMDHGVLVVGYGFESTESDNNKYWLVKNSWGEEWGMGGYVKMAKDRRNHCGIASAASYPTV

[4] = system: transcriptional activation of COX-2; conditions: cited from earlier work
[5] = system: etoposide-induced cortical neuron death; conditions: cited from earlier work
[6] = cited from earlier work; for t1/2: buffer
[7] = system: release of genomic DNA from white blood cells in whole blood (18S ribosomal DNA 66 bp and 500 bp amplicons); test: 18S rDNA qPCR: increase of DNA in plasma of stored whole blood; assay type: cell-based, human; conditions: for increase of 18S DNA from day 0: Example 5, 2.1, 20 μM, within 7 days of storage at RT; for released DNA / stabilization capability: 3 and 6 days at room temperature
Excerpt: Detection of ribosomal 18S DNA by quantitative real-time PCR, makes it possible to calculate the x-fold increase of DNA from day 0 to day 3 or 7 (calculation: division of day 3 (or 7) copies by day 0 copies).

[8] = system: ladder-like pattern of genomic DNA fragments (apoptosis) in whole blood; test: chip gel electrophoresis of circulating cell-free DNA; assay type: cell-based; conditions: 20 μM in whole blood; day 3 and day 7
Experimental: 1.3.1 Measurement of the blood cell stability/DNA release by the determination of DNA size distribution using a chip gel electrophoresis (2100 Bioanalyzer; Agilent Technologies; Inc., USA) according to manufacturer's instruction (see handbook Agilent DNA 7500 and DNA 12000 Kit Guide), but 1.5 μl instead of 1 μl sample were transferred to the wells.
Each tested caspase inhibitor was added to whole blood samples (20 μM end concentration in 10 ml blood; blood was collected into Vacutainer K2E Tubes; BD). The whole blood sample was processed as described in section 1 (plasma preparation and nucleic acid isolation).
The eluted circulating cell-free DNA was separated by size using chip gel electrophoresis (for details on the method see above). […] The DMSO control and the K2E blood (not treated according to the teachings of the present invention) show the same ladder-like pattern of bands. This pattern occurs in samples where apoptosis takes place. During apoptosis, endonucleases degrade genomic DNA at inter-nucleosomal linker regions and produce DNA fragments of circa 180 bp or multiples of 180 bp. Thus, apoptosis occurs in samples which show a clear ladder-like pattern. Furthermore, the strength (darkness) of the pattern is decisive. The darker the bands, the more genomic DNA was released from the cells and thus contaminates the extracellular nucleic acid population.

[9] = system: cells; conditions: cited from earlier work
[10] = system: myocardial infarct size during reperfusion; conditions: cited from earlier work

OC(CN1CCNCC1)Cn1c2ccc(Br)cc2c2cc(Br)ccc21 (racemic) [Bax Channel Blocker, (±)-1-(3,6-Dibromocarbazol-9-yl)-3-piperazin-1-yl-propan-2-ol,bis TFA]
inhibition of Bid-induced cytochrome c release [1]: cyctochrome c release from HeLa cell mitochondria (~80%

CC(C)C[C@H](NC(=O)OCc1ccccc1)C(=O)N[C@@H](CC(C)C)C(=O)N[C@@H](Cc1ccc(O)cc1)C(=O)CF [Calpain Inhibitor IV, Z-Leu-Leu-Tyr-CH2F] (HELM PEPTIDE1{[O=C(OCc1ccccc1)[*:2]].L.L.Y.[FC[*:1]]}$$$$V2.0)
k2 calpain II [2]: 28,900 M-1s-1). Also acts as an inhibitor of cathepsin L (k2 = | k2 cathepsin L [3]: 680,000 M-1s-1).

O=c1c(O)c(-c2ccc(O)cc2)oc2cc(O)cc(O)c12 [Kaempferol]
IC50 [4]: < 15 µM

O=[N+]([O-])c1ccc(-c2cn3c4c(sc3n2)CCCC4)cc1 [Pifithrin-α, p-Nitro, Cyclic]
fold higher potency than Pifithrin-α [5]: A cell-permeable p53 inhibitor that exhibits 10-fold higher potency | t1/2 [6]: 6 h | longer half-life than Pifithrin-α ([6]; neuron culture medium at 37° C.): 50%

N=c1sc2c(n1CC(=O)c1ccc([N+](=O)[O-])cc1)CCCC2 [Pifithrin-α, p-Nitro]
t1/2 [6]: biological systems (t1/2 = 8h in neuron culture medium at 37° C.).

CC(C)C(NC(=O)c1ccc2ccccc2n1)C(=O)NC(CC(=O)O)C(=O)COc1c(F)cccc1F (stereo not drawn) [Q-VD-OPh, Quinoline-Val-Asp-CH2-OPH]
increase of 18S DNA from day 0 [7]: reduced increase of DNA | ladder-like pattern of cell-free DNA [8]: significantly reduced ladder-like patterns | toxicity to cells [9]: not toxic to cells even at extremely high concentrations

COC(=O)C[C@H](NC(=O)[C@H](C)NC(=O)[C@@H](NC(=O)OCc1ccccc1)C(C)C)C(=O)CF [Z-Val-Ala-Asp(OMe)-FMK] (Cbz-Val-Ala-Asp(OMe)-CH2F)
increase of 18S DNA from day 0 [7]: more prominent on day 7 | ladder-like pattern of cell-free DNA [8]: reduced ladder-like pattern

CCCC(N)=O [butanamide]
released DNA / stabilization capability ([7]; Example 2, 2.5, 3 or 3.5% butanamide or 5% DMAA with 1 μM caspase inhibitor and EDTA): at least comparable stabilization capabilities to DMAA | released DNA / stabilization capability ([7]; Example 3, butanamide 0.5-2% with DMPA 2.5-1%, 1 μM caspase inhibitor, EDTA): comparable stabilization capabilities | increase in 18S rDNA ([7]; Example 4, 0.5, 1.5 and 2.5% (w/v) butanamide with 1 μM caspase inhibitor and EDTA): significantly reduced increase in 18S rDNA

Ac-Leu-Glu-His-Asp-CMK (LEHD; HELM PEPTIDE1{[ac].L.E.H.D.[ClC[*:1]]}$$$$V2.0; SMILES CC(=O)N[C@@H](CC(C)C)C(=O)N[C@@H](CCC(=O)O)C(=O)N[C@@H](Cc1c[nH]cn1)C(=O)N[C@@H](CC(=O)O)C(=O)CCl) [Caspase-9 Inhibitor III]
concentration reported to reduce myocardial infarct size [10]: myocardial infarct size during reperfusion (~70 nM).
